Test results as given in patent US20250270180A1, “MEK INHIBITORS AND THERAPEUTIC USES THEREOF” (Immuneering Corporation, priority 2020, published 2025).

How the values were obtained:
[1] = Metabolite ID study, six species hepatocytes; assay type: in vitro ADME; details: hepatocyte incubations, T=60 min
Experimental: Animal Studies: Compound 9 was tested using six species hepatocytes in a metabolite ID study (T=60 min).
Cryopreserved hepatocytes from a selected species were thawed and incubated in duplicate with 10 uM compound 9 in Krebs-Henseleit buffer. […] Viability of hepatocytes was >70% after thawing.
(Eppendorf 5804R). […] The disappearance of the parent compound was determined, and the formation of metabolites was evaluated. Metabolites present at >1% of total compound related material (based on peak area) were identified by interpretation of the LC-MS/MS data.
The spectra obtained from all samples were screened for the presence of m/z values that are absent in the blank incubations (incubations with hepatocytes without compound and with vehicle control, and incubations of compound in buffer without hepatocytes). T=60 min incubations were used as an initial screening. All possible metabolites observed were semi-quantified by MS response (peak area). MS2 spectra were interpreted to determine possible location of the metabolism reaction. The presence of metabolites identified was compared across the selected species.
Primary metabolite shown for each species in bold font. Several masses found were also present in incubations with compound in buffer and were considered not to be metabolites.

[2] = Single dose PK profile (plasma and tumor) in Colon26 tumor bearing mice; assay type: in vivo; details: female, mouse
Experimental: Female mice (either athymic BALC/c nude, or BALB/c mice) were inoculated with a single subcutaneous injection of 0.1 ml of mouse Colon-26 cell suspension (1×10^5 cells per animal) in the right flank region. Colon26 (C26) tumor bearing mice received a single dose (3-4 mice/treatment) of vehicle (10% DMSO/90% [20% SBE-B-CD in saline], pH 5) containing compounds at indicated dose by gavage (p.o.) or intravenous administration (i.v.) and at various time points (0.16, 0.5, 1, 2, 4, 8, 12, 16, 24-hour) post dose humanely euthanized. Blood was obtained through cardiac puncture into K+EDTA tubes, mixed by inversion and centrifuged to obtain the plasma. Tissues were excised, cleaned of surrounding tissues. All samples immediately snap frozen in liquid N2 prior to LC-MS/MS analysis (using Agilent Poroshell-120 EC-C18 (4.0 μm) 2.1×50 mm, and a Water+API-4000 Electrospray MS unit). The results of this study are illustrated in FIGS. 16, and 17. Tables 11 describes a single does PK profile (plasma) and Table 12 describes a single dose PK profile (tumor).

[3] = test system: A375 pERK:tERK; experiment: Cell-based pERK:tERK, A375
Experimental: Materials and Methods: A549 or A375 cells were seeded in 6-well plates at an appropriate seeding density on day 0. On day 2 or 3, after checking the health and confluency of cells, the media was aspirated and replaced with 1 mL media containing a predetermined concentration of compound and incubated for 2 hours. After 2 hours, the media was aspirated, and the cells washed 2 times with cold PBS. Cells were lysed on ice, with 50 uL 1×CST lysis buffer+1 mM PMSF for 5 minutes. After 5 minutes, cells were removed using a scraper and transferred to cold 1.5 mL tubes, and centrifuged for 10 min, 4° C., 14,000×g. Supernatant was gently removed and snap frozen in liquid nitrogen. Protein concentration of the lysate was determined using Bradford Reagent (analyzed using SpectraMax M2E) and diluted to 1 mg/mL or pERK or 1.5 mg/mL for pMEK analysis. […] All dilutions were in Milk-free antibody diluent.

[4] = athymic BALB/c nude or BALB/c, iv, 25 mg/kg, plasma, 25 mpk i.v.
[5] = athymic BALB/c nude or BALB/c, po, 25 mg/kg, plasma, 25 mpk p.o.
[6] = athymic BALB/c nude or BALB/c, po, 100 mg/kg, plasma, 100 mpk p.o.
[7] = iv, 25 mg/kg, plasma, 25 mpk i.v.
[8] = iv, 25 mg/kg, tumor, 25 mpk i.v.
[9] = po, 25 mg/kg, plasma, 25 mpk p.o.
[10] = po, 25 mg/kg, tumor, 25 mpk p.o.
[11] = po, 100 mg/kg, plasma, 100 mpk p.o.
[12] = po, 100 mg/kg, tumor, 100 mpk p.o.

CNS(=O)(=O)Nc1cccc(Cc2c(CN(C)C)c3ccc(OC(=O)N(C)C)cc3oc2=O)c1F [Compound 9]
extent of metabolism in hepatocytes from different species [1]: not extensively metabolized | Tmax [2, 4]: 30 min | half-life [2, 4]: 37.8 min | bioavailability [2, 5]: 75.6% | half-life [2, 5]: 79.2 min | bioavailability [2, 6]: 192% | half-life [2, 6]: 73.2 min | AUC(0-inf) [2, 7]: 5810 ng·h/mL | AUC(0-t) [2, 7]: 5810 ng·h/mL | Cmax [2, 7]: 6520 ng/mL | AUC(0-inf) [2, 8]: 8290 ng·h/mL | AUC(0-t) [2, 8]: 8280 ng·h/mL | Cmax [2, 8]: 7790 ng/mL | Tmax [2, 8]: 30 min | half-life [2, 8]: 208 min | AUC(0-inf) [2, 9]: 4400 ng·h/mL | AUC(0-t) [2, 9]: 4390 ng·h/mL | Cmax [2, 9]: 4640 ng/mL | Tmax [2, 9]: 30 min | AUC(0-inf) [2, 10]: 4900 ng·h/mL | AUC(0-t) [2, 10]: 4890 ng·h/mL | Cmax [2, 10]: 4580 ng/mL | Tmax [2, 10]: 30 min | bioavailability [2, 10]: 59.1% | half-life [2, 10]: 76.8 min | AUC(0-inf) [2, 11]: 44600 ng·h/mL | AUC(0-t) [2, 11]: 44500 ng·h/mL | Cmax [2, 11]: 30100 ng/mL | Tmax [2, 11]: 30 min | AUC(0-inf) [2, 12]: 51700 ng·h/mL | AUC(0-t) [2, 12]: 51700 ng·h/mL | Cmax [2, 12]: 30300 ng/mL | Tmax [2, 12]: 30 min | bioavailability [2, 12]: 156% | half-life [2, 12]: 118 min | A375 pERK:tERK ratio [10 nM; 2 hr] [3]: 0.71
